The source of these data is paper PMC7069944, “Amino acid levels determine metabolism and CYP450 function of hepatocytes and hepatoma cell lines” (Nature Communications, 2020).

The target in data set [1] is CYP3A4 (Homo sapiens, UniProt P08684). How it is done: (§1) Comparative CYP450 biotransformation studies were performed to assess functionality across a number of gold standard primary hepatocyte models. Cryopreserved PHHs were obtained from a single donor (Lonza, Breda, The Netherlands) or pooled donors (Thermo Scientific, Merelbeke, Belgium). Upon thawing, cell suspensions (0.5 million cells/ml) were prepared in WE medium using 24-well plates (0.5 ml/well) on an orbital shaker and metabolization activity was assessed following a 15 min equilibration period. Human Hepatopac® plates were obtained from Ascendance Biotechnology (Ascendance Biotechnology, Boston USA) and cultures were maintained following instructions of the provider. Spheroid cultures were generated in-house as essentially described by Bell et al.[42].
CYP3A4 (Homo sapiens, UniProt P08684), sequence (P08684 whole entry): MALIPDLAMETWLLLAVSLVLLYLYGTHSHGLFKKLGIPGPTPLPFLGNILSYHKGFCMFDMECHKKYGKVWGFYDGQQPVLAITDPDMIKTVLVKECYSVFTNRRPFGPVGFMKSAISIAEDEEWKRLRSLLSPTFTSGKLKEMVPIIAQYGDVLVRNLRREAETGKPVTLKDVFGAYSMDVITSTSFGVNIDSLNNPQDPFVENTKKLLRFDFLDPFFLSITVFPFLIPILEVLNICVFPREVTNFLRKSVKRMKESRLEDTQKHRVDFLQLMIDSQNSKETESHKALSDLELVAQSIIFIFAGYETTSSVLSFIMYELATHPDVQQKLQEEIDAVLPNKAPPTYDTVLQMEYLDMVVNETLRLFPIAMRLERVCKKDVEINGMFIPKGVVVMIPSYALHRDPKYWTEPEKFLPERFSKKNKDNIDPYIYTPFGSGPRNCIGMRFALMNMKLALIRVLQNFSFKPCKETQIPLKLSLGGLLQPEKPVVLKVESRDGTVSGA
(§2) Finally, the system was re-equilibrated at 60% (A)/40% (B) for an additional 0.7 min. Total run time was 3.8 min and 2 µl aliquots were injected onto the system for analysis.
(§3) All data collection, processing, and analysis was performed with Analyst® software (v1.6.2. SCIEX).

Data set [2] relates to CYP3A4. As to the kind of experiment: qRT-PCR CYP3A4 expression in HepG2. In kind it is cell-based, human. Conditions: single amino acid supplementation, relative to CTL (CTL values equal HepG2 D7 CTL). How it is done:
AA supplementation was accomplished through the addition of MEM Non-Essential Amino Acids Solution (100 × ) and MEM Amino Acids Solution (50 × ) (Thermo Scientific) to the culture medium. For AA1, AA2, and AA3 medium, we added respectively 2 ml, 8 ml, and 16 ml of non-essential AA solution and 1 ml, 4 ml, and 8 ml of essential AA solution per 100 ml of LDM, with or without glucose. Culture medium was then made PH neutral through the addition of NaOH. […] PSC derived HLCs were differentiated in LDM until D12. AA supplementation (AA1, AA2 and AA3) was performed from day 12 until day 20, 30 or 40 of differentiation. […] HepG2, HUH7.5, Hep3B, HHL5, and HEK293 cells were maintained in DMEM supplemented with 10% fetal bovine serum as shown in Supplementary Table 4. AA supplementation consisted of addition of 16 ml of non-essential AA mix and 8 ml of essential AA mix per 100 ml of medium and a further addition of 20 g/l of any of the single AAs. […] PHHs were maintained in a medium composition that was based on WE as detailed in ref. [67].
RNA extraction was performed using the GenElute Mammalian Total RNA Miniprep Kit (Sigma-Aldrich). Then, genomic DNA was eliminated using the On-Column DNase I Digestion kit (Sigma-Aldrich). Last, 1 µg of RNA was transcribed to cDNA using the Superscript III First-Strand synthesis (Invitrogen). Gene expression analysis was performed using the Platinum SYBR green qPCR supermix-UDG kit (Invitrogen) in a ViiA 7 Real-Time PCR instrument (Thermo Scientific, Waltham, MA). The sequences of all used qRT-PCR primers are listed in Supplementary Table 6. Of these, ribosomal protein L19 (RPL19) was used as a housekeeping gene for normalization.
A general note: In qPCR the cycle at which signal appears reflects the starting amount.

Data set [3] relates to CYP3A4. As to the kind of experiment: CYP3A4-dependent BFC metabolization (fluorometric probe). In kind it is in vitro ADME, human. Conditions: for BFC metabolisation: Figure 2B, replicate values; for BFC metabolisation (pmol/h/1000000cells): Figure 1D. How it is done:
Urea concentrations in the medium were analyzed after 24 h of culture using the QuantiChromTM Urea Assay Kit (BioAssay Systems DIUR-500) according to the manufacturer’s instructions. […] Metabolization was assessed for 1 h and 4 h incubation times. […] The albumin secretion rate was quantified using the human albumin ELISA quantification kit (Bethyl) according to instructions provided in the kit.

Data set [4] concerns the target CYP2D6 (Homo sapiens, UniProt P10635). As to the kind of experiment: Drug biotransformation cocktail: dextromethorphan. The protocol: as §1, §2, §3
Data set [5] concerns HepG2. As to the kind of experiment: Single-exposure toxicity, Hoechst/DRAQ7 live cell number, HepG2. Conditions: for IC50: Homo sapiens.
Protocol: (§4) PSCs were differentiated in a 384-well format. Cells were treated with 14 different concentrations of compounds in 6 repeats. As a negative control, 41 wells were left untreated. HepG2 were seeded at 40,000 cells per well. For control conditions, HepG2 were exposed after 2 days of culture. […] Cells were fixed with 4% PFA. Imaging was done using an Operetta High-Content Imaging System (Perkin Elmer) and image analysis was performed using Harmony software (Perkin Elmer). […] As a positive control, 1 donor of PHHs was seeded at 10,000 cells per well. Drugs were administrated after 8 h of attachment.
In data set [6] the test system is HLCs. As to the kind of experiment: Single-exposure toxicity, Hoechst/DRAQ7 live cell number, HLCs.
Protocol: as §4
For data set [7], the system named is HC6X in the BJ1-iPSC background. As to the kind of experiment: Single-exposure toxicity, Hoechst/DRAQ7 live cell number, HC6X (BJ1-iPSC). Conditions: Homo sapiens.
Protocol: as §4
Data set [8] has as its system HC6X in the H9-ESC background. As to the kind of experiment: Single-exposure toxicity, Hoechst/DRAQ7 live cell number, HC6X (H9-ESC). Conditions: Homo sapiens.
Protocol: as §4
Data set [9] has as its system PHHs. As to the kind of experiment: Single-exposure toxicity, Hoechst/DRAQ7 live cell number, PHH 12 h. Conditions: Homo sapiens, read-out: IC50 single exposure, Mean.
Protocol: as §4

Values joined by “and” are separate entries in the source; they are usually repeats but may differ in a detail not shown here. Equal values may be shown once. Read-outs that look alike come from different tables or passages of the source.

CYP2D6, sequence (P10635 whole entry): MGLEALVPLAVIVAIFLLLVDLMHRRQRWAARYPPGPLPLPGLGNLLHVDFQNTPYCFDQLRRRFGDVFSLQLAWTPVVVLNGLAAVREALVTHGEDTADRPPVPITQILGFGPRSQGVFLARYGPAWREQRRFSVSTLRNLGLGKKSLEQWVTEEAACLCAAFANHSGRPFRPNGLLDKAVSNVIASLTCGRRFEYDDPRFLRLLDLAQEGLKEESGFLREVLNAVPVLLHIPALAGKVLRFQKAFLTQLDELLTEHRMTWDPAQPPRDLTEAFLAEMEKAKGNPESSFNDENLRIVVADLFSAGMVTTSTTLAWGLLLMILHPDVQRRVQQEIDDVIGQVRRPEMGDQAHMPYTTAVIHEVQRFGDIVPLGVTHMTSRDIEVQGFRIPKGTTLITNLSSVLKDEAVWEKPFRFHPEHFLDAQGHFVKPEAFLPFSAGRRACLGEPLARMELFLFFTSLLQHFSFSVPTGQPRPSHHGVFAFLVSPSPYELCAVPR

Turning to `OCc1ncc2n1-c1ccc(Cl)cc1C(c1ccccc1F)=NC2` [1-OH midazolam], the “1-OH midazolam formation (drug biotransformation cocktail)” value in data set [1] (HepG2 AAGLY D32) was 5.9655 and 7.1394 and 9.0214; in data set [1] (Hepatopac), 23.2481 and 33.0328 and 45.6546; in data set [1] (PHH1), 5.4616 and 6.486.
Consider `OCc1ncc2n1-c1ccc(Cl)cc1C(c1ccccc1F)=NC2` [10H-midazolam], for which the “Stable 10H-midazolam metabolisation rate” value in [1] (HC6X AAGLY D40, D46) is 371.429 ng/h/100 000 cells and 443.182 ng/h/100 000 cells and 446.97 ng/h/100 000 cells; in data set [1] (HC6X AAGLY D40, D48) it was 353.788 ng/h/100 000 cells and 537.879 ng/h/100 000 cells and 462.121 ng/h/100 000 cells; in data set [1] (HepG2 AAGLY D30, column head D40), 79.0741 ng/h/100 000 cells and 82.3438 ng/h/100 000 cells and 89.7887 ng/h/100 000 cells; in data set [1] (HepG2 AAGLY D30, column head D42), 185 ng/h/100 000 cells and 122.333 ng/h/100 000 cells and 146.406 ng/h/100 000 cells; in [1] (HepG2 AAGLY D30, column head D46) it was 133.654 ng/h/100 000 cells and 137.308 ng/h/100 000 cells and 133.846 ng/h/100 000 cells; in [1] (HepG2 AAGLY D30, column head D48), 133.333 ng/h/100 000 cells and 151.667 ng/h/100 000 cells and 136.296 ng/h/100 000 cells. Besides, the “Stable 10H-midazolam metabolisation rate” value in data set [1] (HepG2 AAGLY D30, column head D50) was 105 ng/h/100 000 cells and 107.963 ng/h/100 000 cells and 103.75 ng/h/100 000 cells.
As for `C[C@H](N)C(=O)O` [ALA, alanine], the “Relative CYP3A4 expression” value in [2] was 353.956 and 394.102 and 280.416.
Regarding `O=c1cc(C(F)(F)F)c2ccc(OCc3ccccc3)cc2o1` [BFC, 7-benzyloxy-4-trifluoromethylcoumarin], the “relative BFC metabolsiation (compared to PHH 0h)” value in data set [3] (HC3X AAGLY D20) was 13.5398 and 11.6179 and 10.8677; in [3] (HC3X AAGLY D40), 91.111 and 105.714 and 91; in [3] (HC3X AAGLY D50), 143.333 and 136.667 and 101.19; in data set [3] (HC3X LDM D20) it was 1.9009 and 2.216 and 2.503; in data set [3] (HLC AAGLY D20) it was 5.305 and 4.4 and 6.066; in [3] (HLC LDM D20), 1.044 and 0.9752 and 0.9879. For the same compound, the “relative BFC metabolsiation (compared to PHH 0h)” value in [3] (HLC LDM D40) is 4.464 and 8.743 and 7.646; in [3] (PHH 0h) it was 101.025 and 82.5131 and 116.462; in data set [3] (PHH 12h) it was 9.941 and 9.524. The BFC metabolisation is 21.4494 pmol/h/1000000 cells and 25.0015 pmol/h/1000000 cells and 28.2425 pmol/h/1000000 cells in [3] (HC3X D20); 11.7761 pmol/h/1000000 cells and 11.0043 pmol/h/1000000 cells and 15.6069 pmol/h/1000000 cells in [3] (HLC D20); 1139.95 pmol/h/1000000 cells and 1031.07 pmol/h/1000000 cells and 1214.14 pmol/h/1000000 cells in data set [3] (PHH 0h); 112.17 pmol/h/1000000 cells and 107.467 pmol/h/1000000 cells and 156.494 pmol/h/1000000 cells in [3] (PHH 12h). Also, the “BFC metabolisation (pmol/h/1000000cells)” value in data set [3] (HLC D20) was 11.7761 pmol/h/1000000cells and 11.0043 pmol/h/1000000cells and 15.6069 pmol/h/1000000cells; in data set [3] (PHH 0h) it was 1139.95 pmol/h/1000000cells and 931.065 pmol/h/1000000cells and 1314.14 pmol/h/1000000cells; in data set [3] (PHH 12h) it was 112.17 pmol/h/1000000cells and 107.467 pmol/h/1000000cells and 156.494 pmol/h/1000000cells.
As to `COc1ccc2c(c1)[C@]13CCCC[C@@H]1[C@H](C2)N(C)CC3` [Dextrometrophan], the “Dextrometrophan biotransformation (cocktail)” value is 0 in data set [4] (HC6X LDM D40); 0 in [4] (HepG2 AAGLY D32); 0 in data set [4] (HepG2 CTL D4); 0 in [4] (HepaRG diff D7); 0.5629 and 0.7098 and 0.9714 in data set [4] (Hepatopac); 15.8656 and 14.7 and 17.4198 in data set [4] (PHH1).
As to `O=C(O)[C@@H]1CCCN1` [PRO, proline], the “Relative CYP3A4 expression” value in data set [2] was 252.463 and 338.714 and 412.836.
On the same count and under the same terms, to `N[C@@H](CO)C(=O)O` [SER, serine] belongs 405.322 and 582.424 and 382.821.
In the case of `Cc1ncc2n1-c1ccc(Cl)cc1C(c1ccccc1F)=NC2` [midazolam], the “midazolam biotransformation compared with PHHs” value in [1] (HepG2 AAGLY D32 and HC6X AAGLY D40, single exposure) is on record as “equal to that of PHHs”.
Broadly, the IC50 is the point on the concentration scale where inhibition reaches its midpoint. `C=C(C)[C@H]1Cc2c(ccc3c2O[C@@H]2COc4cc(OC)c(OC)cc4[C@@H]2C3=O)O1` [rotenone]: the “IC50 single exposure, Mean” value in [5] (HepG2 CTL D7) and in data set [6] (H9 HLC LDM D40) was “No toxicity” in each case. For the same compound, the IC50 in data set [5] (HepG2, read-out: IC50 single exposure, Mean, HepG2 AAGLY D30) stood at 0.883 nM; in [5] (HepG2, read-out: IC50 single exposure, Mean, HepG2 AAGLY D40) it was 2.51 nM; in data set [6] (Homo sapiens, read-out: IC50 single exposure, Mean), 5.39 nM; in [7] (read-out: IC50 single exposure, Mean, BJ1 HC6X AAGLY D40) it was 2.56 nM; in data set [7] (read-out: IC50 single exposure, Mean, BJ1 HC6X AAGLY D50), 7.5 nM; in data set [8] (read-out: IC50 single exposure, Mean, H9 HC6X AAGLY D40) it was 8.28 nM. Moreover, the IC50 in [8] (read-out: IC50 single exposure, Mean, H9 HC6X AAGLY D50) amounted to 4.2 nM; in data set [9], 1.28 nM.
